Results taken from patent US6866861B1, “Method and composition for enhancing milk component concentrations” (Land O'Lakes, Inc., priority 1999, dated 2005).

Tests used:
[1] = system: cows; assay: Cyclic oral feeding of glycerol to cows, milk component concentrations (Example 8); format: in vivo, cow; settings: for Fat in Milk / Lactose in Milk / Total Solids in Milk / True Protein in Milk: oral
Method: To determine the weight percent total solids, wet basis, in a sample, the actual weight of total solids is determined by analyzing the sample in accordance with Method #925.23 (33.2.09) of Official Methods of Analysis, Association of Official Analytical Chemists (AOAC) (16th Ed., 1995). The weight percent total solids, wet basis, is then calculated by dividing the actual weight of total solids by the actual weight of the sample. The weight percent of true protein, wet basis, for a particular sample is calculated after first determining the wet basis weight percent of total Kjeldahl nitrogen and the wet basis weight percent of non-protein nitrogen in the sample. The wet basis weight percent of total Kjeldahl nitrogen in the sample is determined using the method referenced above. The wet basis weight percent of non-protein nitrogen (NPN) in the sample is determined in accordance with Method #991.21 (33.2.12) of Official Methods of Analysis, Association of Official Analytical Chemists (AOAC) (16th Ed., 1995). The weight percent of true protein, wet basis, in the sample is then determined by subtracting the wet basis weight percent of non-protein nitrogen in the sample from the wet basis weight percent of total Kjeldahl nitrogen in the sample. To determine the weight percent lactose, wet basis, in a liquid sample, the weight of the liquid sample is first determined. The actual weight of lactose in the liquid sample may then be determined using analysis kit number 176-303, that is available from Boehringer-Mannheim of Indianapolis, Ind. in accordance with the procedural instructions included with analysis kit number 176-303. The weight percent lactose, wet basis, in the liquid sample is then calculated by dividing the actual weight of lactose in the liquid sample by the actual weight of the liquid sample. To determine the weight percent fat, wet basis, in a sample, the actual weight of fat in the sample is determined in accordance with Method #974.09 (33.7.18) of Official Methods of Analysis, Association of Official Analytical Chemists (AOAC) (16th Ed., 1995). The weight percent fat, wet basis, is then calculated by dividing the actual weight of fat in the sample by the actual weight of the sample. In Example 8, glycerol was periodically fed orally to several test cows. Period 1 lasted from week 1-3, Period 2 lasted from week 4-6, and Period 3 lasted from week 7-9, with week 0 being the start of the test period in which no glycerol was provided. The results presented in Table 7 below are averages for particular components for milk produced from each of the test animals.

[2] = system: cows; assay: Abomasal infusion of sorbitol in cows, milk component concentrations (Example 2); format: in vivo, cow; settings: for Ash / Fat / Lactose / Total Solids / True Protein: 100 g/cow/day abomasal, average of 3 cows
Method: To determine the weight percent total solids, wet basis, in a sample, the actual weight of total solids is determined by analyzing the sample in accordance with Method #925.23 (33.2.09) of Official Methods of Analysis, Association of Official Analytical Chemists (AOAC) (16th Ed., 1995). The weight percent total solids, wet basis, is then calculated by dividing the actual weight of total solids by the actual weight of the sample. The weight percent of true protein, wet basis, for a particular sample is calculated after first determining the wet basis weight percent of total Kjeldahl nitrogen and the wet basis weight percent of non-protein nitrogen in the sample. The wet basis weight percent of total Kjeldahl nitrogen in the sample is determined using the method referenced above. The wet basis weight percent of non-protein nitrogen (NPN) in the sample is determined in accordance with Method #991.21 (33.2.12) of Official Methods of Analysis, Association of Official Analytical Chemists (AOAC) (16th Ed., 1995). The weight percent of true protein, wet basis, in the sample is then determined by subtracting the wet basis weight percent of non-protein nitrogen in the sample from the wet basis weight percent of total Kjeldahl nitrogen in the sample. To determine the weight percent lactose, wet basis, in a liquid sample, the weight of the liquid sample is first determined. The actual weight of lactose in the liquid sample may then be determined using analysis kit number 176-303, that is available from Boehringer-Mannheim of Indianapolis, Ind. in accordance with the procedural instructions included with analysis kit number 176-303. The weight percent lactose, wet basis, in the liquid sample is then calculated by dividing the actual weight of lactose in the liquid sample by the actual weight of the liquid sample. To determine the weight percent fat, wet basis, in a sample, the actual weight of fat in the sample is determined in accordance with Method #974.09 (33.7.18) of Official Methods of Analysis, Association of Official Analytical Chemists (AOAC) (16th Ed., 1995). The weight percent fat, wet basis, is then calculated by dividing the actual weight of fat in the sample by the actual weight of the sample. In this example, sorbitol was abomasally infused into three different cows at a rate of 100 grams of sorbitol per cow per day during a 14 day test period. The sorbitol rations were mixed with water to facilitate infusion. The rations provided to the cows during the period extending from day 0, prior to abomasal infusion of sorbitol, through day 14 of the test period were the same. The only difference in feeding of the cows between day 0 and days 1-14 of the test period were that during days 1-14 the cows were abomasally infused with the dosage of 100 grams of sorbitol per cow per day. Milk from the three cows was collected and analyzed prior to infusion (on day 0) and also was collected and analyzed on the third, seventh and fourteenth day of the test period. The results presented in Table 2 below for each milk component for each particular day are averages for the milk collected from the three different cows. The net change for the different milk components presented in Table 2 was calculated by averaging the results of days 3, 7 and 14 for a particular milk component and subtracting the results presented for day 0 for the particular milk component.

[3] = Period 1 (Fed Glycerol), weeks 1-3
[4] = Period 3 (Fed Glycerol), weeks 7-9
[5] = milk, average of days 3, 7, 14 minus day 0

OCC(O)CO [glycerol]
fat, lactose, or total solids content of the milk (conclusion in words) ([1]; cyclic oral feeding): no increase or essentially no increase
Fat in Milk [1, 3]: 3.06 wt %
Lactose in Milk [1, 3]: 4.97 wt %
Total Solids in Milk [1, 3]: 11.38 wt %
True Protein in Milk [1, 3]: 2.64 wt %
Fat in Milk [1, 4]: 3.22 wt %
Lactose in Milk [1, 4]: 4.80 wt %
Total Solids in Milk [1, 4]: 11.43 wt %
True Protein in Milk [1, 4]: 2.69 wt %

OC[C@@H](O)[C@@H](O)[C@H](O)[C@@H](O)CO [sorbitol]
weight percent of fat, true protein, and total solids in the milk (conclusion in words) ([2]; abomasal infusion, 14 day test period): net increase
Ash ([2]; milk, Day 3): 0.73 Wt. %
Fat ([2]; milk, Day 3): 4.59 Wt %
Lactose ([2]; milk, Day 3): 4.62 Wt. %
Total Solids ([2]; milk, Day 3): 13.00 Wt. %
True Protein ([2]; milk, Day 3): 3.06 Wt. %
Ash ([2]; milk, Day 7): 0.73 Wt. %
Fat ([2]; milk, Day 7): 3.78 Wt %
Lactose ([2]; milk, Day 7): 4.87 Wt. %
Total Solids ([2]; milk, Day 7): 12.40 Wt. %
True Protein ([2]; milk, Day 7): 3.01 Wt. %
Ash ([2]; milk, Day 14): 0.71 Wt. %
Fat ([2]; milk, Day 14): 4.33 Wt %
Lactose ([2]; milk, Day 14): 4.75 Wt. %
Total Solids ([2]; milk, Day 14): 12.88 Wt. %
True Protein ([2]; milk, Day 14): 3.09 Wt. %
Ash, Net Change [2, 5]: no net change
Fat, Net Change [2, 5]: +0.67 Wt %
Lactose, Net Change [2, 5]: −0.13 Wt. %
Total Solids, Net Change [2, 5]: +0.63 Wt. %
True Protein, Net Change [2, 5]: +0.08 Wt. %
